The values that follow come from US9938316B2, “Selective inhibitors of α2 isoform of Na,K-ATPase and use thereof for reduction of intra-ocular pressure and as cardiotonic agents” (priority 2013, dated 2018).

The Ki is a measure of affinity in units of concentration, obtained from inhibition or displacement. A high value points to weaker binding.

For experiment [1], the system named is Na,K-ATPase α2β1 isoform complex. Put plainly: biochemical. It counts as biochemical, human. Conditions: for Selectivity α1β1/α2/β1: ratio of Ki, Table 6; for Selectivity ratio Ki α1/α2 ± S.E.: Kiα1β1/Kiα2β1. The protocol: (§1) Methods for transformation, culture of P. pastoris clones, protein expression of Na,K-ATPase human isoforms (α1β1, α2β1, α3β1), membrane preparation, solubilization of membranes in DDM, and purification on BD-Talon beads have been described in detail (6-9, 11, 25). In initial experiments the three purified isoform complexes (0.3-0.5 mg/ml) were eluted from the BD-Talon beads in a solution containing Imidazole 170 mM, NaCl 100 mM; Tricine.HCl 20 mM pH 7.4; C12E8, 0.1 mg/ml; SOPS 0.07 mg/ml cholesterol 0.01 mg/ml, glycerol 25%. In later experiments the isoforms complexes were reconstituted with purified FXYD1 on the BD-Talon beads together as described in detail in (10, 11) prior to elution of α1β1FXYD1, α2β1FXYD1 and α3β1FXYD1 complexes. The proteins were stored at −80° C. Protein concentration was determined with BCA (B9643 Sigma).
(§2) Inhibition of Na,K-ATPase activity of the detergent-soluble α1β1, α2β1, and α3β1 complexes by CG's was determined as described (6) using either the αβ or αβFXYD1 complexes. […] The K0.5K was estimated by varying K concentration in a medium containing a fixed total K+choline chloride of 60 mM, and constant NaCl of 140 mM. Curves were fitted to the Hill function v=Vmax*[S]^n/([S]^n+K^n), where S is the K concentration, n is the Hill coefficient and K^n is K0.5K. For comparison of different curves the ratio v/Vmax for each curve was calculated and replotted. In experiments to assess inhibition of Na,K-ATPase activity by cardiac glycosides of the present invention, the percent inhibition VCG/V0 was calculated and Ki values were obtained by fitting the data to the function VCG/V0=Ki/([CG]+Ki)+ c. Inhibition was estimated in 3-8 separate experiments and average Ki values ±SEM were calculated. Significance of differences between Kiα1 and Kiα2 was calculated by the unpaired Student's t-test (p values). […] P values <0.05 were considered significant.

Experiment [2] concerns the target T1, Na,K-ATPase α1β1 isoform complex (Homo sapiens, UniProt P05023). As to the kind of experiment: biochemical. Further details: made in house; host or cells: Pichia pastoris SMD1165. Particulars: Ki, nM ± SEM α1β1, Table 6. How it is done:
as §1, §2

In experiment [3] the target is T2, Na,K-ATPase α2β1 isoform complex (Homo sapiens, UniProt P50993). Put plainly: biochemical. It counts as biochemical. The arrangement: made in house; host or cells: Pichia pastoris SMD1165. Conditions: Ki, nM ± SEM α2β1, Table 6. How it is done:
as §1, §2

Experiment [4] concerns Na,K-ATPase α2β2 isoform complex. Put plainly: biochemical. The arrangement: species or system human. Particulars: ratio of Ki, Table 6.
Source text: (§3) Human β1, β2 and β3 were cloned into the pHIL-D2 expression vector containing the human α1 or α2. pHIL-D2 expression vectors containing porcine (p) α1, human (h) α1 or human α2 with Hisx10 tagged porcine β1 were previously generated (7, 9). Human β1 (Accession: P05026), human β2 (Accession: P14415) and human β3 (Accession: […]) cDNAs in pSD5 vector were a gift from K. Geering Univ. Lausanne Switzerland. The open reading frames and flanking regions of hβ1, hβ2 and hβ3 (in pSD5) were amplified separately by polymerase chain reaction (PCR) using synthetic primers containing BglII and SalI cleavage sites. Each one of the amplified fragments were digested with BglII and SalI and ligated to BglII and SalI treated plasmid pHIL-D2-(pα1/His10pβ1) to generate pHIL-D2 (pα1/His10hβ1or2or3). hβ1, hβ2 and hβ3 containing fragments were excised from pHIL-D2-(pα1/His10hβ1or2or3) and subcloned into pHIL-D2-(hα1/His10pβ1) or pHIL-D2-(hα2/His10pβ1) to produce pHIL-D2-(hα1/His10hβ1or2or3) and pHIL-D2-(hα2/His10hβ1or2or3). The newly created plasmids were analyzed for correct integration and correct sequence of the insert by restriction enzymatic digestions and sequencing. DNA of each construct was prepared in large quantities in E. coli XL-1 Blue for Pichia pastoris transformation.
as §2

Experiment [5] concerns Na,K-ATPase α2β3 isoform complex. Put plainly: biochemical. The arrangement: species or system human. Particulars: ratio of Ki, Table 6.
Source text: as §3, §2

In experiment [6] the target is T3, Na,K-ATPase α2β3 isoform complex (Homo sapiens, UniProt P50993).
T3 construct: made in house; host or cells: Pichia pastoris SMD1165
Put plainly: biochemical.
Source text: as §3, §2

Experiment [7] addresses T4, Na,K-ATPase α2β2 isoform complex (Homo sapiens, UniProt P50993).
T4 construct: made in house; host or cells: Pichia pastoris SMD1165
As to the kind of experiment: biochemical.
Source text: as §3, §2

Experiment [8] concerns intra-ocular pressure (IOP) of rabbits. As to the kind of experiment: IB-MECA-induced ocular hypertension in rabbits. It counts as in vivo, New Zealand white rabbits. Conditions: single drop, 1 μM. How it is done:
IB-MECA induces acute ocular hypertension by a different and well-defined mechanism. Namely, IB-MECA is a selective agonist of the A3-adenosine receptor, and rises aqueous humour inflow and IOP by activating Cl channels of the NPE cells (18, 19). […] FIG. 8A depicts the effects of DMe (0.1-1 mM) applied prior to the IB-MECA, and a similar result was obtained for DGlyN (not shown). FIG. 8B depicts effects of digoxigenin, DGlyN and DMe (1 mM) applied after the IB-MECA.
(§4) New Zealand white rabbits (3-3.5 kg) about 1 year old, of either sex, were housed individually in separate cages in animal room conditions on a reversed, 12-hour dark/light cycle. For the experiments the animals were transferred to rabbit restrainers in a quiet and calm atmosphere (FIG. 1). […] Animal care and treatment were subject to the approval of the institutional committee for animal experiments, Weizmann Institute IACUC permission (no 04270911-2).
(§5) IOP (mm Hg) of rabbits was measured using a calibrated Pneumatonometer (Model 30, Reichert technologies, FIG. 1). A local anesthetic Oxybuprocaine HCl (0.4%, 25 μl) was applied to each cornea about a minute before IOP measurements. Two baseline IOP readings were taken before topical administration of the CG (or PBS as control) and after half an hour (Zero time). […] At zero time one drop of 4AP (40 mg/ml, 30 μl) or IB-MECA (1 μM, 30 μl) was administered to both eyes of each rabbit IOP measurements were made at different times as indicated in each experiment. In the experiments for which the IOP was elevated for several hours, 4AP was added every […] or IB-MECA every 2 hours. […] In all cases the figures depict the average effect on IOP (i.e for four or six eyes) compared to control ±SEM. […] Significance of differences from the control was calculated by the unpaired Students t-test (p values), p values <0.05 were considered significant. Corneal thickness (μm) was measured using an ultrasonic pachymeter (Sonogage pachometer, Cleveland, USA), before and during the experiment with CG and 4AP treatments. The values represent averages of three independent measurements for each eye.

For experiment [9], the target named is T1, Na,K-ATPase α1β1 isoform complex. Put plainly: biochemical. Conditions: Ki ± S.E. α1, Table 2; α1β1. The protocol: as §1, §2
The target of experiment [10] is T2, Na,K-ATPase α2β1 isoform complex. As to the kind of experiment: biochemical. It counts as biochemical. Conditions: Ki ± S.E. α2, Table 2; α2β1. How it is done: as §1, §2
The subject of experiment [11] is intra-ocular pressure (IOP) of rabbits. As to the kind of experiment: 4-aminopyridine (4AP)-induced ocular hypertension in rabbits. Particulars: applied topically prior to 4AP. It counts as in vivo, New Zealand white rabbits. How it is done:
Intra-ocular pressure in rabbits was measured using of a “Reichert Model 30™ Pneumatonometer” after anesthetizing the cornea with local anesthetic.
Since the IOP reflects a balance of the inflow and outflow of aqueous humour, reduction of the increased 4AP-induced inflow of aqueous humour by cardiac glycosides should prevent the increase in IOP. Thus, the standard experimental design to test effects of cardiac glycosides involved topical application of the compounds (1 drop in each eye) 30 minutes prior to application of 4AP and measurement of IOP every 30 minutes over five hours. […] Each experiment was done three times, but the figures depict a representative experiment using a different rabbit for each concentration of the cardiac glycoside.
DGlyN or DMe (0.1 or 1 mM) were applied one hour after the first application of 4AP, which was added every two hours.
as §4, §5

For `CCCN1CCC(OC2C(O)CC(OC3C(O)CC(OC4CCC5(C)C(CCC6C5CC(O)C5(C)C(C7=CC(=O)OC7)CCC65O)C4)OC3C)OC2C)OC(C)C1` (stereo not drawn) [DP], in [1], the “Selectivity α1β1/α2/β1” value came out at 4.8. For the same molecule, the Ki was determined as 87.7 ± 7.9 nM in experiment [2], 18.3 ± 1.68 nM in experiment [3], 9.8 ± 1.1 nM in [6] and 10.5 ± 1.8 nM in experiment [7]. The “Selectivity α1β1/α2/β2” value in experiment [4] is on record as 8.3. The “Selectivity α1β1/α2β3” value in experiment [5] was found to be 8.8.

Take `CNC(=O)[C@H]1O[C@@H](n2cnc3c(NCc4cccc(I)c4)ncnc32)[C@H](O)[C@@H]1O` [IB-MECA, reference compound]: the “Effect on IOP” value in experiment [8] is “significant but transient increase in IOP”.

As for `CC1CN(C[Si](C)(C)C)CCC(OC2C(O)CC(OC3C(O)CC(OC4CCC5(C)C(CCC6C5CC(O)C5(C)C(C7=CC(=O)OC7)CCC65O)C4)OC3C)OC2C)O1` (stereo not drawn) [DTMS], the “Selectivity α1β1/α2/β1” value in [1] was 3.4. For the same molecule, the Ki turned out to be 108 nM in experiment [2], 31.5 nM in experiment [3], 7.8 nM in [6] and 15 nM in experiment [7]. Further, in [4], the “Selectivity α1β1/α2/β2” value came to 7.2. Further, the “Selectivity α1β1/α2β3” value in experiment [5] was 13.8.

In the case of `CC1CN(CC(F)(F)F)CCC(OC2C(O)CC(OC3C(O)CC(OC4CCC5(C)C(CCC6C5CC(O)C5(C)C(C7=CC(=O)OC7)CCC65O)C4)OC3C)OC2C)O1` (stereo not drawn) [DMeCF3], the Ki in [9] came to 199 ± 33 nM; in experiment [10] it was 44 ± 7 nM; in experiment [2], 119 ± 15 nM; in experiment [3] it was 28.6 ± 0.9 nM; in [6] it was 12.4 ± 1.5 nM; in [7] it was 18.1 ± 1.9 nM. The “Selectivity ratio Ki α1/α2 ± S.E.” value in experiment [1] worked out at 4.50 ± 1.0. In experiment [1], the “Selectivity α1β1/α2/β1” value is given as 4.1. Further, the “Selectivity α1β1/α2/β2” value in experiment [4] is 6.5. Besides, in experiment [5], the “Selectivity α1β1/α2β3” value amounted to 9.6.

With `CCN1CCC(OC2C(O)CC(OC3C(O)CC(OC4CCC5(C)C(CCC6C5CC(O)C5(C)C(C7=CC(=O)OC7)CCC65O)C4)OC3C)OC2C)OC(C)C1` (stereo not drawn) [DEt], the Ki was 53 ± 3.4 nM in experiment [9]; 18.5 ± 4.9 nM in experiment [10]; 138 ± 12.6 nM in [2]; 23.2 ± 0.9 nM in experiment [3]; 14.4 ± 1.27 nM in experiment [6]; 16.4 ± 1.6 nM in experiment [7]. In [1], the “Selectivity ratio Ki α1/α2 ± S.E.” value is given as 2.88 ± 0.78. For the same molecule, in experiment [1], the “Selectivity α1β1/α2/β1” value came to 5.9. For the same molecule, in experiment [4], the “Selectivity α1β1/α2/β2” value was 8.3. The “Selectivity α1β1/α2β3” value in [5] turned out to be 9.5.

Consider `CC1CN(C(C)(C)C)CCC(OC2C(O)CC(OC3C(O)CC(OC4CCC5(C)C(CCC6C5CC(O)C5(C)C(C7=CC(=O)OC7)CCC65O)C4)OC3C)OC2C)O1` (stereo not drawn) [DtB], for which, in [1], the “Selectivity α1β1/α2/β1” value is 6.2. For the same molecule, the Ki came to 135 ± 12.1 nM in [2], 21.6 ± 5.6 nM in experiment [3], 16.3 ± 0.28 nM in experiment [6] and 18.4 ± 1.1 nM in [7]. Besides, the “Selectivity α1β1/α2/β2” value in experiment [4] is reported as 7.3. Besides, the “Selectivity α1β1/α2β3” value in experiment [5] is listed as 8.2.

As for `CC1CN(C(C)C)CCC(OC2C(O)CC(OC3C(O)CC(OC4CCC5(C)C(CCC6C5CC(O)C5(C)C(C7=CC(=O)OC7)CCC65O)C4)OC3C)OC2C)O1` (stereo not drawn) [DIP], in [1], the “Selectivity α1β1/α2/β1” value is reported as 5.1. Moreover, the inhibitory constant (Ki) in experiment [2] worked out at 149 ± 20.7 nM; in [3], 28.9 ± 1.7 nM; in experiment [6] it was 10.3 ± 1.8 nM; in experiment [7] it was 16.7 ± 1.9 nM. For the same molecule, in experiment [4], the “Selectivity α1β1/α2/β2” value was 8.9. Moreover, the “Selectivity α1β1/α2β3” value in experiment [5] was 14.4.

As for `CC(C)CN1CCC(OC2C(O)CC(OC3C(O)CC(OC4CCC5(C)C(CCC6C5CC(O)C5(C)C(C7=CC(=O)OC7)CCC65O)C4)OC3C)OC2C)OC(C)C1` (stereo not drawn) [DIB], the Ki was determined as 92 ± 8.9 nM in experiment [2], 20.6 ± 1.4 nM in [3], 5.8 nM in [6] and 10 ± 0.8 nM in experiment [7]. Moreover, in experiment [11], the “Concentration required to fully prevent the rise in IOP” value is more than 30 µM.
